The EC90 is the concentration needed for an effect of 90%. A high value points to weaker potency. In general, CC50 refers to the concentration at which the toxic effect on the cells reaches its halfway point. A higher CC50 goes with lower toxicity to the cells.

The values that follow come from patent US20200399264A1, “4-SUBSTITUTED-2-THIAZOLE AMIDES AS ANTIVIRAL AGENTS” (Southern Research Institute, priority 2019, published 2020).

One data set has as its system CHIKV. Briefly: antiviral activity against CHIKV (VTR and EC90). The following applies: Chikungunya virus; for log reduction at 10 µM: read-out: VTR @ 10 μM (logs). Type of data set: cell-based. From the text:
As used herein, “EC90,” is intended to refer to the concentration of a substance (e.g., a compound or a drug) that is required for 90% agonism of a biological process, or component of a process, including a protein, subunit, organelle, ribonucleoprotein, etc. In one aspect, an EC90 can refer to the concentration of a substance that is required for 90% agonism in vivo, as further defined elsewhere herein. In a further aspect, […].

Data set [1] in a line: cell cytotoxicity in a cell viability assay (CC50). Type of data set: cell-based. The following applies: concentration required for 50% cell survival. From the text: As used herein, “CC50,” is intended to refer to the cell cytotoxicity to the concentration of a substance (e.g., a compound or a drug) that is required for 50% cell survival in a cell viability assay in vitro.

As for `CSc1ncccc1C(=O)Nc1nc(-c2cccc(Nc3ccccc3C#N)c2)cs1` [Compound 39, N-(4-(3-((2-Cyanophenyl)amino)phenyl)thiazol-2-yl)-2-(methylthio)nicotinamide], in the data set with CHIKV, the 90% effect level (EC90) was put at 0.5 µM and the log reduction at 10 µM was determined as 5.23. Moreover, in data set [1], the CC50 was over 40 µM.
For `CSc1ncccc1C(=O)Nc1nc(-c2cc(-c3ccc(C#N)cc3)ccc2F)cs1` [Compound 17, N-(4-(4′-Cyano-4-fluoro-[1,1′-biphenyl]-3-yl)thiazol-2-yl)-2-(methylthio)nicotinamide], in the data set with CHIKV, the EC90 stood at 0.34 µM and the log reduction at 10 µM was determined as 5.75. The compound also yielded a CC50 in data set [1] of 25 µM.
Take `CSc1ncccc1C(=O)Nc1nc(-c2cccc(N3CCOCC3)c2)cs1` [Compound 34, 2-(Methylthio)-N-(4-(3-morpholinophenyl)thiazol-2-yl)nicotinamide]: the log reduction at 10 µM with CHIKV was 1.88. In data set [1], this compound returned a CC50 of over 40 µM.
For the compound `N#Cc1ccc(-c2cccc(-c3csc(NC(=O)c4cccnc4C(F)(F)F)n3)c2)cc1` [Compound 7, N-(4-(4′-Cyano-[1,1′-biphenyl]-3-yl)thiazol-2-yl)-2-(trifluoromethyl)nicotinamide], in the data set with CHIKV, the log reduction at 10 µM came out at 5.09. The compound further had a CC50 in data set [1] of 8.07 µM.
Take `CC(C)(C)c1cnc(C(=O)Nc2nc(-c3cccc(-c4ccc(C#N)cc4)c3)cs2)nc1` [Compound 8, 5-(Tert-butyl)-N-(4-(4′-cyano-[1,1′-biphenyl]-3-yl)thiazol-2-yl)pyrimidine-2-carboxamide]: the log reduction at 10 µM in the data set with CHIKV is under 1. The compound also had a CC50 in data set [1] of over 40 µM.
`COC(=O)c1cc(-c2ccc(C#N)cc2)cc(-c2csc(NC(=O)c3cccnc3SC)n2)c1` [Compound 20, Methyl 4′-cyano-5-(2-(2-(methylthio)nicotinamido)thiazol-4-yl)-[1,1′-biphenyl]-3-carboxylate]: in the data set on CHIKV, the log reduction at 10 µM worked out at 3.23. This compound displayed a CC50 in data set [1] of 17.6 µM.
`CSc1ncccc1C(=O)Nc1nc(-c2cccc(N3CCNCC3)c2)cs1` [Compound 31, 2-(Methylthio)-N-(4-(3-(piperazin-1-yl)phenyl)thiazol-2-yl)nicotinamide]: in the data set on CHIKV, the EC90 was found to be 9.1 µM and the log reduction at 10 µM is 8.69. The CC50 in data set [1] is over 30 µM.
For `CC(C)(C)c1ccc(C(=O)Nc2nc(-c3cccc(-c4ccc(CN)cc4)c3)cs2)cc1` [Compound 27, N-(4-(4′-(Aminomethyl)-[1,1′-biphenyl]-3-yl)thiazol-2-yl)-4-(tert-butyl)benzamide], in that order: 1.27 µM, 5.24 and 9.02 µM.
In the case of `CSc1ncccc1C(=O)Nc1nc(-c2cccc(-c3ccccn3)c2)cs1` [Compound 2, 2-(Methylthio)-N-(4-(3-(pyridin-2-yl)phenyl)thiazol-2-yl)nicotinamide], in the data set with CHIKV, the EC90 was 0.7 µM and the log reduction at 10 µM came out at 3.97. Also, the CC50 in data set [1] is over 30 µM.
Take `CSc1ncccc1C(=O)Nc1nc(-c2cccc(-c3ccc(F)nc3)c2)cs1` [Compound 16, N-(4-(3-(6-Fluoropyridin-3-yl)phenyl)thiazol-2-yl)-2-(methylthio)nicotinamide]: in the data set on CHIKV, the concentration for an effect of 90% (EC90) is 0.33 µM and the log reduction at 10 µM was determined as 6.09. This compound also gave a CC50 in data set [1] of over 30 µM.
On to `CSc1ncccc1C(=O)Nc1nc(-c2cccc(-c3ccc(C(N)=O)cc3)c2)cs1` [Compound 25, N-(4-(4′-Carbamoyl-[1,1′-biphenyl]-3-yl)thiazol-2-yl)-2-(methylthio)nicotinamide], for which, in the data set with CHIKV, the EC90 was 0.21 µM and the log reduction at 10 µM stood at 2.43. The compound also had a 50% cytotoxic concentration (CC50) in data set [1] of 17.9 µM.
Turning to `CSc1ncccc1C(=O)Nc1nc(-c2cccc(-n3ccnc3)c2)cs1` [Compound 29, N-(4-(3-(1H-imidazol-1-yl)phenyl)thiazol-2-yl)-2-(methylthio)nicotinamide], in the data set on CHIKV, the 90% effect level (EC90) was put at 0.27 µM and the log reduction at 10 µM was determined as 1.39. Besides, in data set [1], the CC50 is over 40 µM.
For `CSc1ncccc1C(=O)Nc1nc(-c2cccc(Nc3ccc(C#N)cn3)c2)cs1` [Compound 51, N-(4-(3-((5-cyanopyridin-2-yl)amino)phenyl)thiazol-2-yl)-2-(methylthio)nicotinamide], in that order: 4.84 µM, 2.16 and over 40 µM.
For `CSc1ncccc1C(=O)Nc1nc(-c2cccc(-c3ccc(F)cn3)c2)cs1` [Compound 15, N-(4-(3-(5-Fluoropyridin-2-yl)phenyl)thiazol-2-yl)-2-(methylthio)nicotinamide], in the data set on CHIKV, it took 0.33 µM to reach the 90% level (EC90) and the log reduction at 10 µM amounted to 5.64. The same compound displayed a CC50 in data set [1] of over 40 µM.
`CSc1ncccc1C(=O)Nc1nc(-c2cccc(-c3ccncc3)c2)cs1` [Compound 3, 2-(Methylthio)-N-(4-(3-(pyridin-4-yl)phenyl)thiazol-2-yl)nicotinamide]: the log reduction at 10 µM in the data set with CHIKV was under 1. For the same compound, the CC50 in data set [1] is over 40 µM.
Regarding `CSc1ncccc1C(=O)Nc1nc(-c2cccc(Oc3ccccc3)c2)cs1` [Compound 36, 2-methylsulfanyl-N-[4-(3-phenoxyphenyl)thiazol-2-yl]pyridine-3-carboxamide], the log reduction at 10 µM in the data set with CHIKV was determined as 4.87. Besides, in data set [1], the CC50 was over 40 µM.
As to `CSc1ncccc1C(=O)Nc1nc(-c2cccc(-c3ccc(C#N)c(O)c3)c2)cs1` [Compound 22, N-(4-(4′-Cyano-3′-hydroxy-[1,1′-biphenyl]-3-yl)thiazol-2-yl)-2-(methylthio)nicotinamide], in the data set with CHIKV, the EC90 came out at 1.6 µM and the log reduction at 10 µM amounted to 8.5. Further, the CC50 in data set [1] was over 30 µM.
For `CSc1ncccc1C(=O)Nc1nc(-c2cccc(Nc3ccc(C)c(C#N)c3)c2)cs1` [Compound 48, N-(4-(3-((3-cyano-4-methylphenyl)amino)phenyl)thiazol-2-yl)-2-(methylthio)nicotinamide], in that order: 0.89 µM, 4.52 and over 40 µM.
With `COc1ncc(-c2cccc(-c3csc(NC(=O)c4cccnc4SC)n3)c2)cn1` [Compound 28, N-(4-(3-(2-Methoxypyrimidin-5-yl)phenyl)thiazol-2-yl)-2-(methylthio)nicotinamide], the log reduction at 10 µM in the data set with CHIKV came out at 2.52. Also, the CC50 in data set [1] is over 40 µM.
On to `COc1cc(Nc2cccc(-c3csc(NC(=O)c4cccnc4SC)n3)c2)ccc1C#N` [Compound 46, N-(4-(3-((4-yano-3-methoxyphenyl)amino)phenyl)thiazol-2-yl)-2-(methylthio)nicotinamide], for which, in the data set with CHIKV, the 90% effect concentration (EC90) turned out to be 0.34 µM and the log reduction at 10 µM worked out at 5.06. Also, the 50% cytotoxic concentration (CC50) in data set [1] was over 40 µM.
For the compound `CSc1ncccc1C(=O)Nc1nc(-c2cccc(-c3ccc(C#N)cn3)c2)cs1` [Compound 14, N-(4-(3-(5-Cyanopyridin-2-yl)phenyl)thiazol-2-yl)-2-(methylthio)nicotinamide], in the data set with CHIKV, the 90% effect level (EC90) was put at 0.62 µM and the log reduction at 10 µM turned out to be 6. This compound also registered a CC50 in data set [1] of over 40 µM.
Regarding `CSc1ncccc1C(=O)Nc1nc(-c2cccc(N3CCN(C(C)=O)CC3)c2)cs1` [Compound 32, N-(4-(3-(4-acetylpiperazin-1-yl)phenyl)thiazol-2-yl)-2-(methylthio)nicotinamide], the log reduction at 10 µM with CHIKV is under 1. In data set [1], this compound had a cytotoxic concentration (CC50) of over 40 µM.
With `CC(C)(C#N)c1ccc(C(=O)Nc2nc(-c3cccc(Nc4ccc(C#N)cc4)c3)cs2)cc1` [Compound 44, N-(4-(3-((4-cyanophenyl)amino)phenyl)thiazol-2-yl)-4-(2-cyanopropan-2-yl)benzamide], in the data set on CHIKV, the 90% effect level (EC90) was put at 0.98 µM and the log reduction at 10 µM amounted to 2.65. In data set [1], this compound had a CC50 of over 40 µM.
As for `N#Cc1ccc(-c2cccc(-c3csc(NC(=O)C4CCNCC4)n3)c2)cc1` [Compound 11, N-(4-(4′-Cyano-[1,1′-biphenyl]-3-yl)thiazol-2-yl)piperidine-4-carboxamide], the log reduction at 10 µM in the data set on CHIKV is 8.5. The CC50 in data set [1] is over 30 µM.
In the case of `CSc1ncccc1C(=O)Nc1nc(-c2cccc(-c3ccccc3)c2)cs1` [Compound 1, N-(4-([1,1′-Biphenyl]-3-yl)thiazol-2-yl)-2-(methylthio)nicotinamide], in the data set with CHIKV, it took 0.38 µM to reach the 90% level (EC90) and the log reduction at 10 µM was determined as 7.82. Also, in data set [1], the 50% cytotoxic concentration (CC50) is over 40 µM.
For `CC(C)(C)c1ccc(C(=O)Nc2nc(-c3cccc(Nc4ccc(C#N)cc4)c3)cs2)nc1` [Compound 41, 5-(Tert-Butyl)-N-(4-(3-((4-cyanophenyl)amino)phenyl)thiazol-2-yl)picolinamide], in that order: over 10 µM, 0.82 and over 40 µM.
Take `COC(=O)c1ccc(-c2cccc(-c3csc(NC(=O)c4cccnc4SC)n3)c2)cc1` [Compound 23, Methyl 3′-(2-(2-(methylthio)nicotinamido)thiazol-4-yl)-[1,1′-biphenyl]-4-carboxylate]: in the data set with CHIKV, the 90% effect level (EC90) was put at 0.822 µM and the log reduction at 10 µM was 8.69. In addition, in data set [1], the CC50 is over 40 µM.
`CSc1ncccc1C(=O)Nc1nc(-c2cccc(Nc3ccc(CN)cc3)c2)cs1` [Compound 45, N-(4-(3-((4-(aminomethyl)phenyl)amino)phenyl)thiazol-2-yl)-2-(methylthio)nicotinamide]: in the data set with CHIKV, the 90% effect level (EC90) was put at 5.8 µM and the log reduction at 10 µM came out at 1.23. In data set [1], this compound displayed a 50% cytotoxic concentration (CC50) of 12.8 µM.
As for `CSc1ncccc1C(=O)Nc1nc(-c2cccc(-c3ccc(C#N)cc3)n2)cs1` [Compound 13, N-(4-(6-(4-Cyanophenyl)pyridin-2-yl)thiazol-2-yl)-2-(methylthio)nicotinamide], in the data set on CHIKV, the log reduction at 10 µM was found to be 2.72. Moreover, the CC50 in data set [1] was determined as 16.3 µM.
